{
  "source": "patent US10168342B2",
  "about": "“Lipid probes and uses thereof” (THE SCRIPPS RESEARCH INSTITUTE, priority 2015, dated 2019)",
  "assay_in_all_cases": "In situ competitive SILAC profiling with A-DA probe in (PMA-stimulated) A549 cells",
  "conditions_in_all_cases": "A549 cells, A-DA probe",
  "key": {"[1]": {"target": "T1, A-DA lipid probe targets in A549 cells (Homo sapiens, UniProt O95470)", "T1 sequence (O95470 1-568)": "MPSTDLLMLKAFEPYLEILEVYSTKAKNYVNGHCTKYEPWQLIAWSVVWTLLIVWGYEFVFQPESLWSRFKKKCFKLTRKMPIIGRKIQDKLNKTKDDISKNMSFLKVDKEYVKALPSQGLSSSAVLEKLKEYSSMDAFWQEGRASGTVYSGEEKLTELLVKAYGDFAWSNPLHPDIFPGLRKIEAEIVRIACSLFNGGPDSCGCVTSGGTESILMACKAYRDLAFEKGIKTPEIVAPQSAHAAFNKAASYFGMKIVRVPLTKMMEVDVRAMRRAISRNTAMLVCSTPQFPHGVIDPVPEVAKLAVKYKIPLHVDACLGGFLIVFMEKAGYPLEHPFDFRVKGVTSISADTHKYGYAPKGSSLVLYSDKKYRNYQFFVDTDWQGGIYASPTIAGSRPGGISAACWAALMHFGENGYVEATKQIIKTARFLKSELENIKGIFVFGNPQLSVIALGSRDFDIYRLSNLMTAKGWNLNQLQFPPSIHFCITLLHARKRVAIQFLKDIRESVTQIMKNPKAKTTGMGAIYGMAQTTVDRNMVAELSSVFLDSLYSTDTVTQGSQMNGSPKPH"}, "[2]": {"target": "T2, A-DA lipid probe targets in A549 cells (Homo sapiens, UniProt P07602)", "T2 sequence (P07602 60-524)": "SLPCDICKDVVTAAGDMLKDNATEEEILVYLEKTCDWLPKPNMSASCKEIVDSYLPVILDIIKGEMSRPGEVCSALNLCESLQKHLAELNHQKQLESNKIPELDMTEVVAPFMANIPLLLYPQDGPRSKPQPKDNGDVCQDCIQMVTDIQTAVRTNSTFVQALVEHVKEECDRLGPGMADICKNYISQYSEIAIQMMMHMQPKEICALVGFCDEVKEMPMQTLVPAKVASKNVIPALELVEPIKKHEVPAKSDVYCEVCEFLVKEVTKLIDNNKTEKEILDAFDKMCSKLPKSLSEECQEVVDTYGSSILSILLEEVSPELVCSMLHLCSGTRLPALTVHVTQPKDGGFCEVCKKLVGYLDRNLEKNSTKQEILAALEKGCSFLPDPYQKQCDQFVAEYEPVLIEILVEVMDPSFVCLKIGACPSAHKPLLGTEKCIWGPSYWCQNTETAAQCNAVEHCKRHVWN"}, "[3]": {"target": "T3, A-DA lipid probe targets in A549 cells (Homo sapiens, UniProt P45880)", "T3 sequence (P45880 1-294)": "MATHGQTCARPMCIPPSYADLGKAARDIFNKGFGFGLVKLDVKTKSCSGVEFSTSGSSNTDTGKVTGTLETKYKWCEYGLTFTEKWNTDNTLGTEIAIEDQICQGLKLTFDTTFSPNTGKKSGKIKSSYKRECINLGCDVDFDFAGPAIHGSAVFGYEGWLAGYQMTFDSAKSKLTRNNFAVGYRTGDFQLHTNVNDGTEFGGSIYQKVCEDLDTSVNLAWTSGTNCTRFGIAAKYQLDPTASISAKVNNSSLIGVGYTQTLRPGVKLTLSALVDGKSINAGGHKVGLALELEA"}, "[4]": {"target": "T4, A-DA lipid probe targets in A549 cells (Homo sapiens, UniProt Q8IZV5)", "T4 sequence (Q8IZV5 1-341)": "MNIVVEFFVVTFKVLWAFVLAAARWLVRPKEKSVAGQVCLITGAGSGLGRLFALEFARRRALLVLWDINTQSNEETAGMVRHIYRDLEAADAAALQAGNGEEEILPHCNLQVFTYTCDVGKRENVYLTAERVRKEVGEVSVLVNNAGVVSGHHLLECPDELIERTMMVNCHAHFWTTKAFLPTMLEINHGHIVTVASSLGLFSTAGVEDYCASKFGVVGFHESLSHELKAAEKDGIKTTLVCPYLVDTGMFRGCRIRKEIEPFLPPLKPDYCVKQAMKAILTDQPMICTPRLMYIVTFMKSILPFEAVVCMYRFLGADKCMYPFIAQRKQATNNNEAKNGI"}, "[5]": {"target": "T5, A-DA lipid probe targets in A549 cells (Homo sapiens, UniProt Q96KC8)", "T5 sequence (Q96KC8 48-554)": "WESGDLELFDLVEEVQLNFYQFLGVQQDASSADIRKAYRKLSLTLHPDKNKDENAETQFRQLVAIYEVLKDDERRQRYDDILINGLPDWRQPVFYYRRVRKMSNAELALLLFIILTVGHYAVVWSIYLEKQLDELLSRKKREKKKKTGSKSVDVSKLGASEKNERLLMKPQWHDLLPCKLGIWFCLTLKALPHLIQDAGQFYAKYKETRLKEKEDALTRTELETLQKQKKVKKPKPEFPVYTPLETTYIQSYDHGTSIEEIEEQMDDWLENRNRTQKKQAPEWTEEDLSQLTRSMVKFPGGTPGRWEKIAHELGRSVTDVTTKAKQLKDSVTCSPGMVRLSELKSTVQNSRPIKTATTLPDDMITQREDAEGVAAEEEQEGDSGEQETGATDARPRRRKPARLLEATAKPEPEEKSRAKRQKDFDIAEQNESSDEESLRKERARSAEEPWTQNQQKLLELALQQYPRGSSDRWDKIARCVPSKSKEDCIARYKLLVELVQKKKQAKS"}},
  "data": [
    {"smiles": "O=C(/C=C/c1cccnc1)NCCCCC1CCN(C(=O)c2ccccc2)CC1", "note": "[FK-866, reference compound]", "values": [
      {"measurement": "SILAC ratio, SGPL1 (O95470)", "setting": "[1]; competitor 25 μM", "result": 1.2},
      {"measurement": "SILAC ratio, PSAP (P07602)", "setting": "[2]; competitor 25 μM", "result": 1.2},
      {"measurement": "SILAC ratio, VDAC2 (P45880)", "setting": "[3]; competitor 25 μM", "result": 1.2},
      {"measurement": "SILAC ratio, RDH10 (Q8IZV5)", "setting": "[4]; competitor 25 μM", "result": 3.1},
      {"measurement": "SILAC ratio, DNAJC1 (Q96KC8)", "setting": "[5]; competitor 25 μM", "result": 1.3}
    ]},
    {"smiles": "C=CCN(C)CCCCCCOc1ccc(C(=O)c2ccc(Br)cc2)c(F)c1", "note": "[Ro488071]", "values": [
      {"measurement": "SILAC ratio, SGPL1 (O95470)", "setting": "[1]; competitor 5 μM", "result": 1.5},
      {"measurement": "SILAC ratio, SGPL1 (O95470)", "setting": "[1]; competitor 50 μM", "result": 3.0},
      {"measurement": "SILAC ratio, PSAP (P07602)", "setting": "[2]; competitor 5 μM", "result": 2.3},
      {"measurement": "SILAC ratio, PSAP (P07602)", "setting": "[2]; competitor 50 μM", "result": 3.1},
      {"measurement": "SILAC ratio, VDAC2 (P45880)", "setting": "[3]; competitor 5 μM", "result": 1.5},
      {"measurement": "SILAC ratio, VDAC2 (P45880)", "setting": "[3]; competitor 50 μM", "result": 3.4},
      {"measurement": "SILAC ratio, RDH10 (Q8IZV5)", "setting": "[4]; competitor 5 μM", "result": 1.9},
      {"measurement": "SILAC ratio, RDH10 (Q8IZV5)", "setting": "[4]; competitor 50 μM", "result": 2.8},
      {"measurement": "SILAC ratio, DNAJC1 (Q96KC8)", "setting": "[5]; competitor 5 μM", "result": 1.6},
      {"measurement": "SILAC ratio, DNAJC1 (Q96KC8)", "setting": "[5]; competitor 50 μM", "result": 3.9}
    ]}
  ]
}
